Measurements as given in PubChem BioAssay (NCI).
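Following 48 hours of exposure in 96-well plates, responses at five concentrations were used to interpolate endpoints linearly. At the GI50, growth is halved. TGI marks complete inhibition of growth.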

Legend:
Assay in all cases: DTP human tumour cell line panel, 48 h
[1] = test system: RXF 393 renal
[2] = test system: MALME-3M melanoma
[3] = test system: SK-MEL-28 melanoma
[4] = test system: NCI-H23 lung
[5] = test system: COLO 205 colon
[6] = test system: SF-295 CNS
[7] = test system: OVCAR-5 ovarian
[8] = test system: HCT-15 colon
[9] = test system: TK-10 renal
[10] = test system: ACHN renal

## CCOC(=O)Cc1[nH]c(C(=O)c2ccccc2)cc1C(=O)c1ccccc1
[1]
  TGI: > 100 µM
[2]
  TGI: > 100 µM
[3]
  TGI: > 10 µM
[4]
  TGI: 33.4 µM
[5]
  TGI: 48.7 µM
[6]
  TGI: > 10 µM
[7]
  TGI: > 10 µM
[8]
  TGI: > 100 µM
[9]
  TGI: > 100 µM
[10]
  TGI: > 10 µM

## CC1(C)C2CC3C(C)(C2)C31c1cc(Cl)ccc1N (centres undefined)
[1]
  TGI: 22.9 µM
[2]
  TGI: 21.3 µM
[3]
  TGI: 31.3 µM
[4]
  TGI: 26 µM
[5]
  TGI: 33.2 µM
[6]
  TGI: 28.6 µM
[7]
  TGI: 29.4 µM
[8]
  TGI: 23 µM
[9]
  TGI: 29.1 µM
[10]
  TGI: 29 µM

## CCCCCCCCCCCC(=O)N(CCCCCCCCC)CC(O)C(O)C(OC1OC(CO)C(O)C(O)C1O)C(O)CO (centres undefined)
[1]
  TGI: 50 µM
[2]
  TGI: 37.7 µM
[3]
  TGI: 35.2 µM
[4]
  TGI: 35.3 µM
[5]
  TGI: 36.9 µM
[6]
  TGI: 40 µM
[7]
  TGI: 49.3 µM
[8]
  TGI: 34.5 µM
[9]
  TGI: 29.8 µM
[10]
  TGI: 32.1 µM

## COc1ccc(C2N(c3ccc(C)c(N=C=O)c3)C(=O)N3C(c4ccc(OC)cc4)N(c4ccc(C)c(N=C=O)c4)C(=O)N23)cc1 (centres undefined)
[1]
  TGI: > 100 µM
[2]
  TGI: 96.1 µM
[3]
  TGI: > 100 µM
[4]
  TGI: > 100 µM
[5]
  TGI: > 100 µM
[6]
  TGI: > 100 µM
[7]
  TGI: > 100 µM
[8]
  TGI: > 100 µM
[9]
  TGI: > 100 µM
[10]
  TGI: > 100 µM

## N=c1ncn(C/C=C/c2ccccc2)c2nc[nH]c12
[1]
  TGI: > 100 µM
[2]
  TGI: > 100 µM
[3]
  TGI: > 100 µM
[4]
  TGI: > 100 µM
[5]
  TGI: > 100 µM
[6]
  TGI: > 100 µM
[7]
  TGI: > 100 µM
[8]
  TGI: > 100 µM
[9]
  TGI: > 100 µM
[10]
  TGI: > 100 µM

## Cc1ccc2sc3c(NCCCN)nc4ccccc4c3c(=O)c2c1
[1]
  GI50: 1.52 µM
  TGI: 3.02 µM
[2]
  GI50: 1.74 µM
  TGI: 3.3 µM
[3]
  GI50: 1.78 µM
  TGI: 3.28 µM
[4]
  GI50: 1.82 µM
  TGI: 3.37 µM
[5]
  GI50: 2.19 µM
  TGI: 5.13 µM
[6]
  GI50: 1.8 µM
  TGI: 3.32 µM
[7]
  GI50: 1.71 µM
  TGI: 3.27 µM
[8]
  GI50: 1.61 µM
  TGI: 3.15 µM
[9]
  GI50: 1.81 µM
  TGI: 3.52 µM
[10]
  GI50: 1.71 µM
  TGI: 3.09 µM

## CC1(C)CCC2=C(O1)c1ccccc1C(=Nc1ccc([N+](=O)[O-])cc1)C2=O
[1]
  TGI: 32.7 µM
[2]
  TGI: 29.7 µM
[3]
  TGI: 29.8 µM
[4]
  GI50: 18.3 µM
  TGI: 52.9 µM
[5]
  GI50: 16.8 µM
  TGI: 30.4 µM
[6]
  GI50: 14.9 µM
  TGI: 29.9 µM
[7]
  GI50: 14.5 µM
  TGI: 28.2 µM
[8]
  TGI: > 100 µM
[9]
  TGI: 32.6 µM
[10]
  TGI: 25.5 µM

## c1ccc2c(c1)nnn2C1CCCCO1 (centres undefined)
[1]
  TGI: > 100 µM
[2]
  TGI: > 100 µM
[3]
  TGI: > 100 µM
[4]
  TGI: > 100 µM
[5]
  TGI: > 100 µM
[6]
  TGI: > 100 µM
[7]
  TGI: > 100 µM
[8]
  TGI: > 100 µM
[9]
  TGI: > 100 µM
[10]
  TGI: > 100 µM
